20 molecules from US20260070902A1, “SULFONYL DERIVATIVES AS CCR6 INHIBITORS” (Hoffmann-La Roche Inc., priority 2022, published 2026) can be followed below.

Experiment [1] has as its target T1, human CCR6 (Homo sapiens, UniProt P51684).
T1 sequence (P51684 1-374): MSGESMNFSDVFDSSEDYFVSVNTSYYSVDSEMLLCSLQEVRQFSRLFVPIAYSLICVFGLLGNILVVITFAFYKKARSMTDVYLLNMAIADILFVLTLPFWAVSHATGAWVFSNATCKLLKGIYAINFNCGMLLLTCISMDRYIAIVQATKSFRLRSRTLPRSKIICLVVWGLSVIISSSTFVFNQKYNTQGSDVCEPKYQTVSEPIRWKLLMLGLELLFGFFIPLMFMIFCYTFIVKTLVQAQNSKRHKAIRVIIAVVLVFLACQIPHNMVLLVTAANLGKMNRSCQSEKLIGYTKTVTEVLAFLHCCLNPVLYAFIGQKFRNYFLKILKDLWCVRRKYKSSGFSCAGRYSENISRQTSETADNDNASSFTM
The experiment can be described thus: CHO-K1 CCR6 chemotaxis assay towards CCL20. In kind it is cell-based. To be noted: relative -Log IC50; CHO-K1 cells overexpressing human CCR6; migration towards 100 ng/ml CCL20; 4 h. The source says:
CHO-K1 CCR6 Chemotaxis Assay Towards CCL20
Cells overexpressing human CCR6 were used in the chemotaxis assay (DiscoverX, cAMP Hunter™ CHO-K1 CCR6 Gi Cell Line). Growth medium of these cells consisted of DMEM/F12, non-essential Amino acids (1×NEAA, Gibco 11140050), 10% FBS and 1× pen/strep (Gibco 15140). For the chemotaxis assay, Corning Transwell plates were used with a pore size of 8 m (Corning 351164). Cells were harvested using trypsin and diluted to 4*10^6 cells/ml in chemotaxis medium (DMEM, 0.25% BSA, pen/strep). Compounds were four-fold serially diluted in DMSO. Further dilutions were made in chemotaxis medium. Cells were incubated with test compounds for 30 min at 37° C. prior to initiation of the assay (2*10^6 cells/ml). Final DMSO concentration in the assay was 0.2%. Wells of the Transwell plates were filled with 200 μl chemotaxis medium containing 100 ng/ml CCL20 (R&D systems 360-MP). 50 μl of the cell/compound suspension was added to the inserts of the Transwell plates (100,000 cells/insert). The Transwell plates were placed in an incubator at 37° C., 5% CO2 for 4 h. After 4 h, the number of migrated cells was quantified using CellTiter Glo (Promega). Percentage inhibition values were calculated based on the low and high signal obtained with 0.2% DMSO in chemotaxis medium without and with CCL20, respectively. The relative −Log IC50 was determined with GraphPad Prism 9 using a four-parameter dose-response model.

Experiment [2] deals with T1, human CCR6. The experiment can be described thus: Human CCR6-CRE reporter assay. Also noted: The second construct contained the open reading frame of human CCR6 in the pUNO1 backbone; host or cells: 293FT cells. In kind it is cell-based. The settings on record: relative -Log IC50; 293FT cells transfected with human CCR6 and CRE-luciferase reporter; 6 μM Forskolin, 6 nM CCL20; 5 h. An outline of the steps:
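293FT cells transiently co-transfected with human CCR6 and a CRE-luc2P reporter, used 48 h later. Compounds incubated with cells in medium containing 6 μM Forskolin and 6 nM CCL20 (assay-medium levels), 0.1% DMSO final, 5 h at 37° C; luminescence read, relative −Log IC50 from four-parameter fit.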
In general terms: In a reporter assay the amount or activity of a reporter protein is the signal.

For orientation: IC50 means the concentration at which inhibition is half-maximal. As for `NC(=O)c1cc(-c2ccc(S(=O)(=O)N3CC[C@H](Nc4ccc(S(F)(F)(F)(F)F)cc4)[C@@H](F)C3)cc2)ccn1` (stereo in doubt) [Example 83, 4-(4-{[(3S,4S)-3-fluoro-4-{[4-(pentafluoro-λ^6-sulfanyl)phenyl]Amino}piperidin-1-yl]sulfonyl}phenyl)pyridine-2-carboxamide], the values for the half-inhibitory concentration (IC50) in experiment [1] and in experiment [2] were 50.1 nM and 316 nM, respectively.
The matching figures for `O=S(=O)(c1ccc(-c2ccc3nccn3c2)cc1)N1CCC(Nc2ccc(S(F)(F)(F)(F)F)cc2)CC1` [Example 1, 1-(4-{imidazo[1,2-a]pyridin-6-yl}benzenesulfonyl)-N-[4-(pentafluoro-λ^6-sulfanyl)phenyl]piperidin-4-amine]: 79.4 nM and 126 nM.
For `Cc1cnc2ccc(-c3ccc(S(=O)(=O)[C@H]4CC[C@H](Nc5ccc(S(F)(F)(F)(F)F)cc5)CC4)cc3)cn12` [Example 13, 4-(pentafluoro-λ^6-sulfanyl)-N-[trans-4-(4-{3-methylimidazo[1,2-a]pyridin-6-yl}benzenesulfonyl)cyclohexyl]aniline], in that order: 5.01 nM and 79.4 nM.
For `O=C1Cc2cc(-c3ccc(S(=O)(=O)[C@H]4CC[C@H](Nc5ccc(S(F)(F)(F)(F)F)cc5)CC4)cc3)ccc2N1` [Example 14, 5-(4-{[trans-4-{[4-(pentafluoro-λ^6-sulfanyl)phenyl]Amino}cyclohexyl]sulfonyl}phenyl)-2,3-dihydro-1H-indol-2-one], in that order: 1260 nM and 200 nM.
Consider `CN(C)C(=O)c1ccc(-c2ccc(S(=O)(=O)[C@H]3CC[C@H](Nc4ccc(S(F)(F)(F)(F)F)cc4)CC3)cc2)cc1` [Example 15, N,N-dimethyl-4′-{[trans-4-{[4-(pentafluoro-λ^6-sulfanyl)phenyl]Amino}cyclohexyl]sulfonyl}-[1,1′-biphenyl]-4-carboxamide], for which the IC50 in experiment [1] was 63.1 nM; in experiment [2], 79.4 nM.
The matching figures for `CNC(=O)c1ccc(-c2ccc(S(=O)(=O)[C@H]3CC[C@H](Nc4ccc(S(F)(F)(F)(F)F)cc4)CC3)cc2)cc1` [Example 16, N-methyl-4′-{[trans-4-{[4-(pentafluoro-λ^6-sulfanyl)phenyl]Amino}cyclohexyl]sulfonyl}-[1,1′-biphenyl]-4-carboxamide]: 12.6 nM and 63.1 nM.
With `CN(C)C(=O)c1cccc(-c2ccc(S(=O)(=O)[C@H]3CC[C@H](Nc4ccc(S(F)(F)(F)(F)F)cc4)CC3)cc2)c1` [Example 19, N,N-dimethyl-4′-{[trans-4-{[4-(pentafluoro-λ^6-sulfanyl)phenyl]Amino}cyclohexyl]sulfonyl}-[1,1′-biphenyl]-3-carboxamide], the half-maximal inhibitory concentration (IC50) is 398 nM in experiment [1] and 63.1 nM in experiment [2].
`CNC(=O)c1cccc(-c2ccc(S(=O)(=O)[C@H]3CC[C@H](Nc4ccc(S(F)(F)(F)(F)F)cc4)CC3)cc2)c1` [Example 21, N-methyl-4′-{[trans-4-{[4-(pentafluoro-λ^6-sulfanyl)phenyl]Amino}cyclohexyl]sulfonyl}-[1,1′-biphenyl]-3-carboxamide]: the IC50 in experiment [1] is 12.6 nM; in experiment [2], 31.6 nM.
The matching figures for `CNC(=O)c1ccc(-c2ccc(S(=O)(=O)[C@H]3CC[C@H](Nc4ccc(S(F)(F)(F)(F)F)cc4)CC3)cc2)cn1` [Example 22, N-methyl-5-(4-{[trans-4-{[4-(pentafluoro-λ^6-sulfanyl)phenyl]Amino}cyclohexyl]sulfonyl}phenyl)pyridine-2-carboxamide]: 100 nM and 39.8 nM.
Turning to `NC(=O)c1cccc(-c2ccc(S(=O)(=O)[C@H]3CC[C@H](Nc4ccc(S(F)(F)(F)(F)F)cc4)CC3)cc2)c1` [Example 23, 4′-{[trans-4-{[4-(pentafluoro-λ^6-sulfanyl)phenyl]Amino}cyclohexyl]sulfonyl}-[1,1′-biphenyl]-3-carboxamide], the IC50 in experiment [1] and in experiment [2] was 50.1 nM in each case.
For the molecule `O=S(=O)(c1ccc(-c2cn3ccnc3cn2)cc1)N1CCC(Nc2ccc(S(F)(F)(F)(F)F)cc2)CC1` [Example 24, 1-(4-{imidazo[1,2-a]pyrazin-6-yl}benzenesulfonyl)-N-[4-(pentafluoro-λ^6-sulfanyl)phenyl]piperidin-4-amine], the figures for the half-maximal inhibitory concentration (IC50) in experiment [1] and in experiment [2] were 501 nM and 200 nM, respectively.
The matching figures for `CC(C)c1nnc2ccc(-c3ccc(S(=O)(=O)N4CCC(Nc5ccc(S(F)(F)(F)(F)F)cc5)CC4)cc3)cn12` [Example 28, N-[4-(pentafluoro-λ^6-sulfanyl)phenyl]-1-{4-[3-(propan-2-yl)-[1,2,4]triazolo[4,3-a]pyridin-6-yl]benzenesulfonyl}piperidin-4-amine]: 5.01 nM and 31.6 nM.
With `CC(C)c1cnc2ccc(-c3ccc(S(=O)(=O)N4CCC(Nc5ccc(S(F)(F)(F)(F)F)cc5)CC4)cc3)cn12` [Example 29, N-[4-(pentafluoro-λ^6-sulfanyl)phenyl]-1-{4-[3-(propan-2-yl)imidazo[1,2-a]pyridin-6-yl]benzenesulfonyl}piperidin-4-amine], the IC50 was 50.1 nM in experiment [1] and 39.8 nM in experiment [2].
The matching figures for `COCc1nnc2ccc(-c3ccc(S(=O)(=O)N4CCC(Nc5ccc(S(F)(F)(F)(F)F)cc5)CC4)cc3)cn12` [Example 30, 1-{4-[3-(methoxymethyl)-[1,2,4]triazolo[4,3-a]pyridin-6-yl]benzenesulfonyl}-N-[4-(pentafluoro-λ^6-sulfanyl)phenyl]piperidin-4-amine]: 251 nM and 50.1 nM.
Take `N#Cc1cnc2ccc(-c3ccc(S(=O)(=O)[C@H]4CC[C@H](Nc5ccc(S(F)(F)(F)(F)F)cc5)CC4)cc3)cn12` [Example 33, 6-(4-{[trans-4-{[4-(pentafluoro-λ^6-sulfanyl)phenyl]Amino}cyclohexyl]sulfonyl}phenyl)imidazo[1,2-a]pyridine-3-carbonitrile]: the figures for the IC50 in experiment [1] and in experiment [2] were 7.94 nM and 63.1 nM, respectively.
The matching figures for `O=S(=O)(c1ccc(-c2ccc3nncn3c2)cc1)[C@H]1CC[C@H](Nc2ccc(S(F)(F)(F)(F)F)cc2)CC1` [Example 36, 4-(pentafluoro-λ^6-sulfanyl)-N-[trans-4-(4-{[1,2,4]triazolo[4,3-a]pyridin-6-yl}benzenesulfonyl)cyclohexyl]aniline]: 1580 nM and 126 nM.
For the molecule `NC(=O)c1n[nH]c2ccc(-c3ccc(S(=O)(=O)[C@H]4CC[C@H](Nc5ccc(S(F)(F)(F)(F)F)cc5)CC4)cc3)cc12` [Example 37, 5-(4-{[trans-4-{[4-(pentafluoro-λ^6-sulfanyl)phenyl]Amino}cyclohexyl]sulfonyl}phenyl)-1H-indazole-3-carboxamide], the IC50 in experiment [1] was 3.98 nM; in experiment [2], 63.1 nM.
The matching figures for `NC(=O)c1nnc2ccc(-c3ccc(S(=O)(=O)[C@H]4CC[C@H](Nc5ccc(S(F)(F)(F)(F)F)cc5)CC4)cc3)cn12` [Example 39, 6-(4-{[trans-4-{[4-(pentafluoro-λ^6-sulfanyl)phenyl]Amino}cyclohexyl]sulfonyl}phenyl)-[1,2,4]triazolo[4,3-a]pyridine-3-carboxamide]: 79.4 nM and 251 nM.
The matching figures for `N#Cc1nnc2ccc(-c3ccc(S(=O)(=O)[C@H]4CC[C@H](Nc5ccc(S(F)(F)(F)(F)F)cc5)CC4)cc3)cn12` [Example 42, 6-(4-{[trans-4-{[4-(pentafluoro-λ^6-sulfanyl)phenyl]Amino}cyclohexyl]sulfonyl}phenyl)-[1,2,4]triazolo[4,3-a]pyridine-3-carbonitrile]: 15.8 nM and 251 nM.
For `Cc1cn2cc(-c3ccc(S(=O)(=O)[C@H]4CC[C@H](Nc5ccc(S(F)(F)(F)(F)F)cc5)CC4)cc3)ncc2n1` [Example 43, 4-(pentafluoro-λ^6-sulfanyl)-N-[trans-4-(4-{2-methylimidazo[1,2-a]pyrazin-6-yl}benzenesulfonyl)cyclohexyl]aniline], the half-maximal inhibitory concentration (IC50) in experiment [1] was 316 nM; in experiment [2], 158 nM.
